# Laboratory results taken from patent US20090170759A1, “NEUROPROTECTIVE PEPTIDES” (priority 2007, published 2009).
# “Also recorded” adds a separate entry of the source.
# System: spontaneous hypertensive rats
# Test: Experimental model of cerebral ischemia (tandem CCA/MCA occlusion), infarct volume
# Assay type: in vivo, rat
# Conditions: listed as EPO
# Protocol: Male spontaneous hypertensive rats (Charles River) weighing between 250-300 g were weighed and then anesthetized with ketamine (100 mg/ml)/xylazine (20 mg/ml) cocktail (1.2 ml/kg; i.p.). The level of anesthetic was assessed by corneal reflex (air puff to eye) and leg jerk in response to tail or foot pinch. Once the rat was anesthetized, it was placed on a small animal surgical board and restrained during the surgical procedure. The rat's body temperature was monitored continuously with a rectal probe and maintained at 37° C. with a homeostatic heating pad.
# Rats were rendered ischemic by tandem occlusion of the left common carotid artery and the left middle cerebral artery for 2 h followed by 22 h of reperfusion using a modification of the technique described by Brint and co-workers (J. Cereb Blood Flow Metab 8:474-485, 1988). Specifically, the left CCA was isolated through an incision in the ventral surface of the neck. […]
# Study I: EPO and Vehicle Delivered Via Osmotic Mini-Pump • […] prior to the onset of ischemia, an osmotic mini-pump (Model 1003D; Alza) filled with vehicle or EPO was placed between the scapula of the rat. […] Twenty-two hours later, the rats were evaluated for behavioral performance, a blood sample was collected for terminal plasma levels of EPO and then the rat was euthanized, brain removed, sectioned and stained for histological analysis.
# Study II: EPO and Vehicle Delivered as a Single Intravenous Bolus Injection • On Day One, the rats were rendered ischemic as described above. […] Twenty-two hours later, the rats were evaluated for behavioral performance, a blood sample was collected for terminal plasma levels of EPO and then the rat was euthanized, brain removed, sectioned and stained for histological analysis. […]
substance,measurement,setting,value
"rhEPO: purified, recombinant human EPO (rhEPO), currently formulated and distributed under the trademarks of EPREX, ERYPO, or PROCRIT","infarct volume, Study I","132 or 1321 U/day continuous iv infusion via osmotic mini-pump, started before ischemia",significantly reduced infarct volume; also recorded: protects against ischemic injury
same,"infarct volume, Study III","repeat iv bolus of 2500 U/kg at 15 min, 2 h, 4 h and 6 h post-occlusion",significant decrease in infarct volume; also recorded: protects against ischemic injury
same,"ischemic damage, Study II","single iv bolus 15 min post-occlusion at 1000, 2500 or 5000 U/kg",did not protect against ischemic damage; also recorded: does not protect against ischemic injury
